Test results published in patent US12350256B2, “Histidine and/or histidine derivative for the treatment of inflammatory skin diseases” (Curapel (Scotland) Limited, priority 2008, dated 2025).

System: Adult patients with moderate to severe chronic atopic dermatitis
Test: Randomised, double-blind, placebo-controlled study of oral L-histidine in atopic dermatitis (SCORAD, POEM, TEWL)
Type: in vivo, human
Description: A randomised, double-blind, placebo-controlled study was conducted as follows: Adult (i.e. greater than 18 years of age) patients with moderate to severe chronic atopic dermatitis were recruited to the study from patients and diagnosis of atopic dermatitis confirmed using the UK Working Party's Diagnostic criteria (see Williams et al, Br. J. Dermatol. 1994; 131:383-96). Exclusion criteria were: patients aged less than 18 years, pregnancy or lactation, liver disease, exposure to natural or artificial ultra-violet radiation, immunosuppression due to disease or medication and Chinese herbal medicine in the 3 months preceding the study. Patients were asked to cease potent topical steroid use during the study. Disease severity was quantified by a research nurse using the well established SCORAD system (see Schmitt et al, European Dermato-Epidemiology Network, J. Allergy Clin. Immunol., 2007; 120:1389-98) and self assessed by the patients using POEM (Patient-Oriented Eczema Measure; see […] et al, J. Arch. Dermatol. 2004; 140-1513-9). Skin barrier function was assessed using a Vapometer® which quantifies Trans Epidermal Water Loss (TEWL; see Fluhr et al, Exp. Dermatol., 2006; 15:483-92). Atopic dermatitis patients were randomised into each of 2 groups and after a 'washout' period of 2 weeks and received either 4.0 g of powder L-histidine or 4.0 g of placebo (the naturally occurring food sweetener, erythritol) powder daily for 4 weeks. The patients were instructed to dissolve either the L-histidine or placebo powder in fruit juice. Neither the patient nor the clinical staff was aware of the identity of treatments administered.

[1] = 4.0 g daily oral for 4 weeks, n=4

N[C@@H](Cc1c[nH]cn1)C(=O)O [L-Histidine, 2-amino-3-(3H-imidazol-4-yl)propanoic acid]
POEM % change after 4 wks [1]: −25%
SCORAD % change after 4 wks [1]: −22%
SCORAD after 4 wks [1]: 25
TEWL % change after 4 wks [1]: −50%
reduction of clinician-scored disease activity (SCORAD) (4 weeks of 4.0 g daily): 22%
reduction of patient-scored disease activity (4 weeks of 4.0 g daily): 25%
reduction of transepidermal water loss (TEWL) (4 weeks of 4.0 g daily): 50%
TEWL after 4 wks (Vapometer, 4.0 g daily oral for 4 weeks, n=4): 8
SCORAD before (baseline before treatment, 4.0 g daily oral group, n=4): 37
TEWL before (baseline before treatment, Vapometer, 4.0 g daily oral group, n=4): 16
POEM before (baseline before treatment, patient self-assessed, 4.0 g daily oral group, n=4): 20
POEM after 4 wks (patient self-assessed, 4.0 g daily oral for 4 weeks, n=4): 15
